The text below walks through data of the OPERA property sets (Mansouri et al. 2018).

One may read the logP as the decadic logarithm of the partition coefficient of the neutral form, usually between octanol and water.

Peptide text beside a SMILES is read from it.

`CCCCC(N)Cc1ccccc1` (stereo not given) came in with a logP of 3.36.

`Clc1nc(Cl)c(Cl)[nH]1` displayed a logP of 1.85.

The molecule `COc1ccc(N2C(=O)CCC2=O)cc1` registered a lipophilicity (logP) of 0.15.

The molecule `O=S(=O)(Nc1ccccc1)C(F)F` displayed a lipophilicity (logP) of 1.95.

Take `CC(=O)N[C@@H](Cc1ccc(O)cc1)C(=O)N[C@@H](Cc1ccccc1)C(N)=O` (Ac-Tyr-Phe-NH2): the logP came to 0.54.

`Cc1cc(=O)cc(C)o1` returned a logP of 0.1.

Regarding `O=C(O)Cc1ccc2ccccc2c1`, the logP came to 2.81.

In turn, `CCCCOC(=O)c1cccnc1` displayed a logP of 2.27.

Turning to `CC=CC` (mixture of isomers), the logP is 2.33.

`N#CC(=Cc1ccccc1)C(N)=O` showed a logP of 1.56.

Regarding `O=C(CCCN1CCN(c2ccccn2)CC1)c1ccc(F)cc1`, the logP came to 3.3.

`CC(=O)c1cccc(O)c1`: the log partition coefficient (logP) is 1.39.

For `C[Se]c1ccccc1`, the logP was determined as 2.87.

On to `CN(C)N=Nc1cccc2oc3ccccc3c12`, for which the logP turned out to be 4.55.

In the case of `CCN(CC)CCCN(c1ccccc1)C1Cc2ccccc2C1`, the logP was found to be 4.86.

The molecule `CN(C)C(=O)OCc1ccc(Cl)cc1` yielded a logP of 2.93.

For `C[C@]1(O)CC[C@H]2[C@@H]3CCC4=CC(=O)CC[C@@H]4[C@H]3CC[C@@]21C`, the lipophilicity (logP) stood at 2.99.

Turning to `CN(O)N=Nc1ccc(C(N)=O)cc1`, the logP is -0.22.

`C#CC1(O)CCCCC1` had a logP of 1.73.

In turn, `NCCc1c[nH]c2ccc(O)cc12` showed a lipophilicity (logP) of 0.21.

With `ClC1=C(Cl)C(Cl)(Cl)C(Cl)=C1Cl`, the log partition coefficient (logP) was found to be 5.04.

`OCCO` showed a logP of -1.36.

On to `O=[N+]([O-])c1ccc(O)c2ncccc12`, for which the logP was 1.99.

For `CCCNc1nc(NC(C)C)nc(SC(F)F)n1`, the logP stood at 4.23.

For the molecule `CCOC(=O)OCC`, the logP came out at 1.21.

For the molecule `COc1cc(C(=O)O)cc(OC)c1O`, the logP turned out to be 1.04.

In the case of `O=C(NC(CO)C(O)c1ccc([N+](=O)[O-])cc1)C(Cl)(Cl)Cl` (stereo not given), the logP amounted to 1.97.

Consider `CCNC(=O)CBr`, for which the logP was found to be 0.34.

For `Cc1ccc(C)cc1`, the log partition coefficient (logP) amounted to 3.15.

In turn, `OCc1ccncc1` came in with a logP of 0.06.

`COc1cc2c(c(OC)c1OC)-c1ccc(N)c(=O)cc1[C@@H](NC(C)=O)CC2` yielded a logP of 0.3.

The molecule `c1ccc(-c2csnn2)cc1` registered a logP of 2.42.

`O=C(O)c1cc2ccccc2[nH]1` returned a logP of 2.31.

The molecule `C=CCC1=C(C)C(OC(=O)C2C(C=C(C)C)C2(C)C)CC1=O` (stereo not given) yielded a lipophilicity (logP) of 4.78.

`COC1OC(=O)c2ccccc21` (stereo not given) showed a log partition coefficient (logP) of 1.

`Oc1cccc(F)c1` yielded a logP of 1.93.

In the case of `O=[N+]([O-])c1cccc(CO)c1`, the lipophilicity (logP) stood at 1.21.

`CCc1ccc(S(N)(=O)=O)cc1` yielded a lipophilicity (logP) of 1.31.

`CCCCN(N=O)C(N)=O` came in with a logP of 1.04.

In the case of `CC1CC(C)CN(N=O)C1` (stereo not given), the logP was 1.53.

In the case of `Nc1cccnc1`, the logP worked out at 0.11.

For `Cc1cnccn1`, the logP stood at 0.21.

`CC(=O)N[C@@H](CO)C(=O)N[C@@H](Cc1ccccc1)C(N)=O` had a logP of -0.79.

`CSc1nnc(C(C)(C)C)c(=O)n1N`: the logP stood at 1.7.

Regarding `O=S(=O)(CF)Nc1ccccc1`, the logP worked out at 1.35.

In the case of `Nc1ccccc1Cl`, the logP was found to be 1.9.

On to `CCOP(=O)(OCC)SCn1nnc2ccccc2c1=O`, for which the lipophilicity (logP) worked out at 1.63.

For `CNc1ccccc1C`, the logP is 2.16.

Take `C=CC(=O)OC`: the logP is 0.8.

`Nc1cc([N+](=O)[O-])ccc1C(=O)O`: the logP was determined as 1.91.

In turn, `OC[C@H]1O[C@@H](Oc2ccccc2)[C@H](O)[C@@H](O)[C@@H]1O` gave a logP of -0.75.

Regarding `O=S(=O)(c1ccccc1)c1cccc2cccnc12`, the log partition coefficient (logP) stood at 2.33.

For `CN(C)CC=Cc1ccccc1`, the logP worked out at 2.61.

As for `CNC(=O)Oc1cccc(C(C)(C)C)c1`, the lipophilicity (logP) was determined as 2.93.

Consider `CCOCC1CO1` (stereo not given), for which the lipophilicity (logP) was 0.36.

In turn, `CC(=O)OCc1ccc(C)cc1` gave a logP of 2.44.

`COc1ccc(C(c2ccc(OC)cc2)C(Cl)(Cl)Cl)cc1` yielded a logP of 5.08.

`CC1CC2C3CCC4=CC(=O)C=CC4(C)C3(F)C(=O)CC2(C)C1(O)C(=O)CCl` (stereo not given) had a logP of 2.61.

In turn, `O=[N+]([O-])c1cc(Cl)ccc1Cl` showed a logP of 3.09.

`CCOC(=O)C(=Cc1ccccc1C)C(=O)OCC` showed a logP of 3.22.

`CON(C)C(=O)Nc1ccc(Cl)c(Cl)c1` yielded a logP of 3.2.

For the molecule `CC(=O)Oc1ccccc1C#N`, the logP is 1.33.

For `CN(C)C1=CC(=O)C(N(C)C)=CC1=O`, the log partition coefficient (logP) is 1.03.

`CNC(=S)NC` yielded a logP of -0.24.

Take `CN(C)C(=O)OCc1ccc(OCc2ccccc2)cc1`: the logP is 3.27.

For `C=C(C)CC1(CC)C(=O)NC(=S)NC1=O`, the logP amounted to 2.19.

Regarding `Oc1cccc(-c2ccccc2)c1`, the logP is 3.23.

In turn, `C[Si](C)(C)c1ccccc1` returned a logP of 4.72.

As to `CCOS(=O)(=O)c1ccc(C)cc1`, the logP is 1.81.

Molecule `COC(=O)c1cnc2ccccc2c1` registered a logP of 2.25.

Turning to `COC(=O)Cn1ccnc1[N+](=O)[O-]`, the logP was -0.09.

Take `O=Ic1ccccc1`: the logP was -1.61.

Regarding `CC(=O)[C@@]1(O)CC[C@H]2[C@@H]3C[C@H](C)C4=CC(=O)C=C[C@]4(C)[C@@]3(F)[C@@H](O)C[C@@]21C`, the log partition coefficient (logP) worked out at 2.

The molecule `Nc1ccccc1C(=O)O` displayed a logP of 1.21.

Take `O=C(O)Cc1ccccc1Nc1c(F)cccc1Cl`: the logP came to 3.8.

On to `CC(CN(C)C)CN1c2ccccc2Sc2ccccc21` (stereo not given), for which the logP worked out at 4.71.

`CC(=O)N[C@@H](CC(C)C)C(=O)N[C@H](C(N)=O)C(C)C` (Ac-Leu-Val-NH2) came in with a logP of 0.26.

As for `NC(=O)CCCc1ccccc1`, the logP was found to be 1.41.

`Clc1cc2ccccc2cc1Cl` registered a logP of 4.42.

In turn, `CCCCSC#N` yielded a lipophilicity (logP) of 2.03.

On to `CCOc1ccc2nc(S(N)(=O)=O)sc2c1`, for which the logP worked out at 2.01.

`CCCN(N=O)C(N)=O`: the logP worked out at 0.3.

`CC(N)=S` displayed a logP of -0.26.

For the molecule `N#Cc1cccc(N)c1`, the logP was determined as 1.07.

`CNc1ncnc2c1ncn2C1CC(O)C(CO)O1` (stereo not given) displayed a logP of -0.19.

In turn, `CCN1CC(C(O)C(CC2CCCCC2)NC(=O)C(Cc2cnc[nH]2)NC(=O)C(CC(=O)N2CC(OCOC)C(OCOC)C2)Cc2ccccc2)OC1=O` (stereo not given) yielded a logP of 2.31.

As for `O=c1cc[nH]cn1`, the logP is -1.38.

Take `O=C(O)C(c1ccccc1)c1ccccc1`: the logP was found to be 3.09.

On to `CN(C)C(=O)Nc1ccc(Cl)c(Cl)c1`, for which the logP was determined as 2.68.

`Cc1ccc(S(I)=C(N(C)C)N(C)C)cc1` (stereo not given) gave a logP of -0.1.

On to `CC(=O)Nc1cnc2ccccc2n1`, for which the logP was 1.53.

In the case of `O=S(=O)(Oc1ccccc1)c1ccccc1`, the lipophilicity (logP) came to 3.06.

As to `c1ccc(CN2CCOCC2)cc1`, the logP came out at 1.58.

Take `CCC(=O)C1(c2cccc(OC(=O)CC(C)(C)C)c2)CCN(C)CC1`: the logP is 3.17.

In turn, `ClC(Cl)(Cl)c1ccc(C(Cl)(Cl)Cl)cc1` gave a logP of 4.62.

As for `Fc1cc(F)cc(Cn2cc[nH]c2=S)c1`, the logP is 1.98.

`CC(=O)c1c[nH]c2ccccc12`: the logP is 2.06.

Regarding `c1ccc2c(c1)Cc1ccccc1C2`, the logP is 4.25.

`CC(C)C(=O)NN` showed a lipophilicity (logP) of -0.63.

Molecule `O=C(O)CSc1ccccc1` returned a logP of 1.88.

Turning to `O=C1CCC(=O)N1c1ccccc1`, the logP came to 0.06.

`CCC(=O)OC1(C(=O)CCl)C(C)CC2C3CCC4=CC(=O)C=CC4(C)C3C(=O)CC21C` (stereo not given) came in with a logP of 3.3.

Turning to `CN(C)Cc1cccnc1`, the logP was 0.49.

The molecule `CCOC(=O)c1ccccn1` had a logP of 0.87.

With `Cc1noc(NS(=O)(=O)c2ccc(N)cc2)c1C`, the logP stood at 1.01.

In turn, `Cc1cccc2ccccc12` gave a logP of 3.87.

On to `CNC(=O)Oc1cccc(C)c1C`, for which the logP amounted to 1.95.

Molecule `COC(=O)CCCCCC(=O)OC` returned a lipophilicity (logP) of 1.38.

The molecule `CC(C)N(CCC(C(N)=O)c1ccc(-c2ccccc2)cc1)C(C)C` (stereo not given) yielded a logP of 3.66.

`CNP(=O)(OC)Oc1ccccc1Cl` (stereo not given): the logP turned out to be 1.61.

As for `COC(=O)[C@H]1[C@H]2C[C@H]3c4[nH]c5ccccc5c4CCN3C[C@H]2CC[C@@H]1O`, the logP was found to be 2.54.

Regarding `Cc1cc(Cl)c(N=C2NCCN2)c(Cl)c1`, the logP is 1.92.

In turn, `CCN(CC)c1ccccc1` displayed a logP of 3.31.

On to `CCCCCC(=O)NN`, for which the logP was found to be 0.48.

`CNC1=CC(=O)C(NC)=CC1=O` registered a logP of 0.34.

For `COc1cc(S(C)=O)ccc1-c1nc2nnccc2[nH]1` (stereo not given), the logP is 0.23.

In turn, `O=C(O)c1ccccc1[N+](=O)[O-]` yielded a logP of 1.46.

For the molecule `Cc1cc(C(=O)NN)ccn1`, the logP is -0.37.

In the case of `CON(C)C(=O)Nc1ccc(OCCc2ccc(C)cc2)cc1`, the logP was 3.81.

In turn, `Cc1cnc(NS(=O)(=O)c2ccc(N)cc2)c(Br)c1` had a logP of 1.79.

The molecule `Cc1ccc2ccccc2n1` came in with a log partition coefficient (logP) of 2.59.

Turning to `C1OCOCO1`, the logP is -0.43.

As to `O=C1C=CC(=O)c2c(O)cccc21`, the logP worked out at 1.92.

For `C=CCC1(C2C=CCC2)C(=O)NC(=O)NC1=O` (stereo not given), the logP was 1.51.

`C[C@@H]1C[C@H]2C3C[C@H](F)C4=CC(=O)C=CC4(C)[C@@]3(F)[C@@H](O)CC2(C)[C@@]1(O)C(=O)COC(=O)C(C)(C)C` (stereo not given in full) registered a logP of 3.86.

For `c1ccc2c(c1)OCO2`, the logP came out at 2.08.

Turning to `CCCCC(C)=O`, the logP is 1.38.

For `COC(=O)c1ccncc1`, the logP came to 0.87.

Consider `CCCCCOC1OC(CO)C(O)C(O)C1O` (stereo not given), for which the logP is -0.42.

`O=C(O)Cc1ccc(C(F)(F)F)cc1` displayed a logP of 2.45.

For the molecule `CCc1ccccc1S(I)=C(N(C)C)N(C)C` (stereo not given), the log partition coefficient (logP) came out at 0.32.

`Cc1ncc([N+](=O)[O-])n1CCS(C)(=O)=O`: the logP was -0.82.

With `NC(=O)Nc1ccc(Oc2ccccc2)cc1`, the logP is 2.8.

In turn, `CCOc1cccc(C(=O)NP(=O)(N2CC2)N2CC2)c1` showed a logP of 1.24.

For `Cc1ccc(O)c2ncccc12`, the logP was 2.37.
